Measurements from patent publication US6972287B1, “Method of inhibiting amyloid protein aggregation and imaging amyloid deposits” (Pfizer Inc., priority 1999, dated 2005).
Values joined by “and” are separate entries in the source; they are usually repeats but may differ in a detail not shown here. Equal entries are not always repeated. Structures can show the parent of a compound that is named as a salt.

How the values were obtained:
Type in all cases: biochemical
Aβ (1-40) peptide = target: T1, Aβ (1-40) peptide (Homo sapiens, UniProt P05067); assay: BAPA (Beta-Amyloid Peptide Aggregation, pH 6.0, filtration); conditions: Aβ (1-40) 33 μM, pH 6.0, 2 to 4 hours at room temperature; replicate values; letter = synthetic lot
T1 construct: 10 μL 0.5 mg/mL Aβ (1-40) peptide in 20% HFIP
Protocol: Each 96-well plate can therefore accommodate 11 samples+1 Congo Red control (0.039-5 μM final in 2-fold steps). • 4) Seal the plate with aluminum film and incubate for 10 minutes on ice. • 5) Raise the temperature to 37° C. and incubate for 3 to 5 hours (depends on the lot of the peptide). • 6) Remove the aluminum film and add 250 μL/well of 5 μM thioflavin T (ThT) [T-3516, Sigma-Aldrich] in 50 mM glycine-NaOH, pH 8.5. […] The purpose of this assays is to provide a higher volume method of assaying the amount of beta amyloid aggregation using an endpoint assay based on filtration. In this assay, hexafluoroisopropanol (HFIP) is used to break down the initial amyloid peptide to a monomer state and use a concentration of 33 μM which is high enough so that aggregation will occur at pH 6.0 in several hours. Methods: […] Then, we incubate for 2 to 4 hours at room temperature. […] We wash the filter plate with 100 μL of the same phosphate buffer. Aggregation was detected on a Microbeta counter after impregnating the filters with Meltilex (1450-441) and is corrected for background.

Aβ (1-42) = target: T2, Aβ (1-42) (Homo sapiens, UniProt P05067); assay: BATYM assay (Aβ (1-42) aggregation, Thioflavin T fluorescence); conditions: Aβ 1-42 final concentration 100 μM, 37° C., 1 day, letter = synthetic lot
T2 construct: Required Aβ (1-42) (California Peptide) was dried from its hexafluoroisopropanol (HFIP) stock solution; purchased California Peptide
Protocol: Required Aβ (1-42) (California Peptide) was dried from its hexafluoroisopropanol (HFIP) stock solution. The Aβ (1-42) was dissolved in dimethylsulfoxide (DMSO) and then mixed with phosphate buffered saline (PBS) (pH 7.4). The mixed Aβ (1-42) solution was filtered with a 0.2 μm Omnipore membrane syringe filter Millipore, Bedford, Mass.). The compound to be tested in DMSO (50 times concentrate) was put into each well (0.5 μL/well) of a 96-well plate. The Aβ (1-42) solution was added into each well (24.5 μL/well). The plate was centrifuged at 1,000 g for 5 minutes and incubated at 37° C. for 1 day (Aβ 1-42; final concentration 100 μM).
After incubation Thioflavin T (ThT) (30 μM) solution in glycine-NaOH buffer (pH 8.5, 50 mM) was added into each well (250 μL/well), fluorescence was measured (ex=440/20 nm, em=485/20 nm) using a fluorescence plate reader. The inhibitory activity was calculated as the reduction of fluorescence with the following formula: Inhibition (%)={(F(Aβ)−F(Aβ+compound)}/{F(Aβ)−[…]}×100
The IC50s were calculated by a curve fitting program using the following equation. The data were obtained from two different experiments in triplicate.
x=Concentration of tested compound (M),

Aβ(1-40) [1] = target: T3, Aβ(1-40) (Homo sapiens, UniProt P05067); assay: BASST (Beta-Amyloid Self-Seeding, Thioflavin T), inhibitors of self-seeded amyloid fibril growth
T3 construct: […]; purchased Bachem, Torrance, Calif
Protocol: (§1) An assay for inhibitors of self-seeded amyloid fibril growth
Assay Buffer—50 mM sodium phosphate, pH 7.5, 100 mM NaCl, 0.02% NaN3, 1 M urea (filter and store at 4° C.)
(§2) Typically, the solution should be stored until no lag phase is seen in the assay.
The following are the amounts of the components of the reaction mixture that result in each of the 50 assay wells:
• 1) Prepare the reaction mix above by mixing the components and storing on ice. • 2) Pipet 14.5 μL of reaction mixture into each of 50 wells of a polystyrene U-bottom 96-well microtiter plate (Corning 25881-96) on ice. • 3) Add 1.7 μL of diluted compound to be tested to each well in a column of eight, including solvent control. Serial 3-fold dilutions from 1 mM (100 μM final) in assay buffer−urea=7 dilutions+zero. Each 96-well plate can therefore accommodate 11 samples+1 Congo Red control (0.039-5 μM final in 2-fold steps). • 4) Seal the plate with aluminum film and incubate for 10 minutes on ice. • 5) Raise the temperature to 37° C. and incubate for 3 to 5 hours (depends on the lot of the peptide). • 6) Remove the aluminum film and add 250 μL/well of 5 μM thioflavin T (ThT) [T-3516, Sigma-Aldrich] in 50 mM glycine-NaOH, pH 8.5. Read fluorescence on a plate reader (ex=440 nm/20 nm; em=485 nm/20 nm) within 5 minutes. BAPA (Beta-Amyloid Peptide Aggregation)

Aβ(1-40) [2] = target: T3, Aβ(1-40); assay: BASSR (Beta-Amyloid Self-Seeding Radioassay), inhibitors of self-seeded amyloid fibril growth
Protocol: BASSR (Beta-Amyloid Self-Seeding Radioassay)
as §1
Assay Buffer—50 mM sodium phosphate, pH 7.5, 100 mM NaCl, 0.02% NaN3, 1 M urea (filter and store at 4° C.).
as §2
^125I-labeled Aβ(1-40)—150K-350K cpm/μL in 100% acetonitrile—0.1% trifluoroacetic acid (TFA)—1% β-mercaptoethanol (aliquots stored at −20° C.). ^125I-labeled Aβ(1-40) can be made in accordance with the procedure set forth by H. LeVine, III in Neurobiol. Aging, 16, 755, (1995), which is hereby incorporated by reference, or this reagent may be purchased from Amersham, Arlington Heights, Ill.
The following are the amounts of the components of the reaction mixture sufficient for 50 assay wells:
• 1) Prepare reaction mixture above by mixing components and storing on ice. • 2) Pipet 14.5 μL of reaction mixture into each of 50 wells on a polypropylene U-bottom 96-well microtiter plate on ice. (Costar 3794). • 3) Add 1.7 μL of diluted compound to be tested to each well in a column of eight, including solvent control. Serial 3-fold dilutions from 1 mM (100 μM final) in assay buffer−urea=7 dilutions+zero. Each 96-well plate can therefore accommodate 11 samples+1 Congo Red control (0.039-5 μM final in 2-fold steps). • 4) Seal the plate with aluminum film (Beckman 538619) and incubate for 10 minutes on ice. • 5) Raise the temperature to 37° C. and incubate for 3 to 5 hours (depending on the lot of the peptide). • 6) Remove the aluminum film and add 200 μL/well of ice cold assay buffer with urea, collecting the radiolabeled fibrils by vacuum filtration through 0.2 μm pore size GVWP filters in 96-well plates (Millipore MAGV N22, Bedford, Mass.). Determine the radioactivity of the filters using standard methods well-known to those skilled in the art. BASST (Beta-Amyloid Self-Seeding, Thioflavin T)

[3] = 30 μM soluble Aβ(1-40), 37° C., 3 to 5 hours, thioflavin T fluorescence, replicate values, letter = synthetic lot, read-out: BASST (IC50 = μM)
[4] = 30 μM soluble Aβ(1-40) + 125I-labeled Aβ(1-40), 37° C., 3 to 5 hours, replicate values, letter = synthetic lot, ppt = precipitate, V-shaped = inhibition followed by precipitation

T1 sequence (P05067 672-711 limits assumed): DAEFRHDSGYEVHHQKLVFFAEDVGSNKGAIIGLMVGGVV
T3 sequence (P05067 672-711 limits assumed): as above
T2 sequence (P05067 672-713 limits assumed): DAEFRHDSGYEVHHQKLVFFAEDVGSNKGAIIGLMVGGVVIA

Compound | IC50 (Aβ (1-40) peptide) | IC50 (Aβ (1-42)) | IC50 (Aβ(1-40) [1]; read-out: BASST (IC50 = μM)) [µM] | IC50 (Aβ(1-40) [2]) [µM] | IC50 (Aβ(1-40) [1]; [3]) | IC50 (Aβ(1-40) [2]; [4]) | IC50 (Aβ(1-40) [1]; BASST (IC50 = μM)) [µM]
2-{4-[3-(3-Aminophenyl)propyl]phenylamino}benzoic acid [Example 23] | 17 µM | > 100 µM | 2 | 20 | – | – | –
2-{4-[5-(3,4-Dichloro-phenyl)pentyl]phenylamino}methoxy-5-nitrobenzoic acid [Example 14] | > 10 µM | 10.9 µM | – | – | 1 µM | 18 µM and 8 µM and 6 µM and 7 µM | –
O=C(O)c1ccccc1Nc1ccc(CCc2cc(O)c(O)c(O)c2)cc1 [Example 6, 2-{4-[2-(3,4,5-Trihydroxy-phenyl)-ethyl]phenylamino}benzoic acid] | > 60 µM | 21.5 µM | – | – | 4 µM and 1 µM and 3 µM | 15 µM and 21 µM and 20 µM and 40 µM | –
COc1cc(Nc2ccc(CCCc3ccc(Cl)c(Cl)c3)cc2)c(C(=O)O)cc1[N+](=O)[O-] [Example 7] | 39 µM | 8.83 µM | – | – | 2 µM | 18 µM and 13 µM and 12 µM and 20 µM | –
O=C(O)c1ccccc1Nc1ccc(CCCCc2ccc(Cl)c(Cl)c2)cc1 [Example 10, 2-{4-[4-(3,4-Dichlorophenyl)butyl]phenylamino}benzoic acid] | 67 µM | 75.7 µM | – | – | 4 µM | 70 µM and 50 µM | –
O=C(O)c1cc([N+](=O)[O-])ccc1Nc1ccc(CCCCc2ccc(Cl)c(Cl)c2)cc1 [Example 11, 2-{4-[4-(3,4-Dichloro-phenyl)-butyl]-phenylamino}-5-nitro-benzoic acid] | 23 µM and 9 µM | 5.62 µM and 6.78 µM | – | – | 1 µM (3×) and 3 µM and 800 nM | 18 µM and 20 µM (2×) and > 100 µM (2×) and 21 µM and 30 µM | –
O=C(O)c1cc([N+](=O)[O-])cc([N+](=O)[O-])c1Nc1ccc(CCCCc2ccc(Cl)c(Cl)c2)cc1 [Example 12, 2-{4-[4-(3,4-Dichlorophenyl)butyl]phenylamino}-3,5-dinitrobenzoic acid] | > 60 µM | 3.93 µM | – | – | 1 µM | 20 µM | –
O=C(O)c1ccccc1Nc1ccc(CCc2ccc(Cl)c(C(F)(F)F)c2)cc1 [Example 17] | > 60 µM and 41 µM | 64.5 µM | 6.2 | > 100 | – | – | –
Nc1ccc(CCCc2ccc(Nc3ccccc3C(=O)O)cc2)cc1 [Example 22, 2-{4-[3-(4-Aminophenyl)propyl]phenylamino}benzoic acid] | 24 µM | > 100 µM | – | – | 9 µM | 3 µM | –
CCN(CC)c1ccc(CCc2ccc(Nc3ccccc3C(=O)O)cc2)cc1 [Example 26, 2-{4-[2-(4-Diethylaminophenyl)ethyl]phenylamino}benzoic acid monohydrochloride monohydrate] | 57 µM | > 100 µM | – | – | – | – | 1
CCCN(CCC)c1cccc(CCCc2ccc(Nc3ccccc3C(=O)O)cc2)c1 [Example 27, 2-{4-[3-(3-Dipropylaminophenyl)propyl]phenylamino}benzoic acid] | 74 µM | 19.8 µM | – | – | 3 µM | > 100 µM | –
CCN(CC)c1ccc(CCCc2ccc(N(CC)c3ccccc3C(=O)O)cc2)cc1 [Example 30, 2-(N-{4-[3-(4-Diethylaminophenyl)propyl]phenyl}-N-ethylamino)benzoic acid] | 38 µM | 75.3 µM | – | – | 4 µM and 2 µM | 30 µM and 20 µM | –
CCN(CC)c1cccc(CCCc2ccc(Nc3ccccc3C(=O)O)cc2)c1 [Example 32, 2-{4-[3-(3-Diethylaminophenyl)propyl]phenylamino}benzoic acid] | 96 µM | 29.2 µM | – | – | 1 µM | > 100 µM | –
CN(C)c1ccc(CCCc2ccc(Nc3ccccc3C(=O)O)cc2)cc1 [Example 34, 2-{4-[3-(4-Dimethylaminophenyl)propyl]phenylamino}benzoic acid] | 48 µM | 45 µM | – | – | 3 µM | 45 µM | –
CCCN(CCC)c1ccc(CCCc2ccc(Nc3ccccc3C(=O)O)cc2)cc1 [Example 43, 2-{4-[3-(4-Dipropylaminophenyl)propyl]phenylamino}benzoic acid] | 63 µM | 24.2 µM | – | – | 0.3 µM | > 100 µM | –
CCCCN(CCCC)c1ccc(CCCc2ccc(Nc3ccccc3C(=O)O)cc2)cc1 [Example 44, 2-{4-[3-(4-Dibutylaminophenyl)propyl]phenylanino}benzoic acid] | 52 µM | 26.5 µM | – | – | 1 µM | > 100 µM | –
CCCCN(CCCC)c1cccc(CCCc2ccc(Nc3ccccc3C(=O)O)cc2)c1 [Example 45, 2-{4-[3-(3-Dibutylaminophenyl)propyl]phenylamino}benzoic acid] | 32 µM | 21.5 µM | – | – | 1 µM | > 100 µM | –
Clc1ccc(CCc2ccc(Nc3ccccc3-c3nnn[nH]3)cc2)cc1Cl [Example 68, {4-[2-(3,4-Dichloro-phenyl)-ethyl]-phenyl}-[2-(1H-tetrazol-5-yl)phenyl]-amine] | 110 µM | > 100 µM | – | – | 1 µM | > 100 µM | –
O=C(O)c1ccccc1Nc1ccc(CCc2ccc(Cl)c(Cl)c2)cc1 [Example 117, 2-{4-[2-(3,4-Dichloro-phenyl)-ethyl]-phenylamino}-benzoic acid monosodium] | > 100 µM | 61.3 µM | – | – | 3 µM | > 100 µM | –
